PubChem BioAssay (NCI)
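Tested at 5 concentrations; 48 h exposure; 96-well plates; endpoints linearly interpolated, else capped at highest concentration. GI50 is the concentration that inhibits growth by half. TGI is the concentration that stops growth completely.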 Where a SMILES comes first, the peptide text is derived from it. [ ]: non-standard residue; d: D form. The star is where a group is joined. ξ: configuration not given here. ξD = NC(CC(=O)O)C(=O)O; Ac3c = NC1(C(=O)O)CC1; Boc = CC(C)(C)OC(=O)*; OBn = c1ccc(CO*)cc1

Experiments:
Assay in all cases: NCI anticancer screen, dose series, 48 h
K-562 leukemia = test system: K-562 leukemia
KM12 colon = test system: KM12 colon
MCF7 breast = test system: MCF7 breast
NCI-H226 lung = test system: NCI-H226 lung
OVCAR-5 ovarian = test system: OVCAR-5 ovarian
SR leukemia = test system: SR leukemia
BT-549 breast = test system: BT-549 breast
HOP-62 NSCLC = test system: HOP-62 NSCLC
HS 578T breast = test system: HS 578T breast

| Structure (SMILES) | TGI (K-562 leukemia) [µM] | TGI (KM12 colon) [µM] | TGI (MCF7 breast) [µM] | TGI (NCI-H226 lung) [µM] | TGI (OVCAR-5 ovarian) [µM] | TGI (SR leukemia) [µM] | TGI (BT-549 breast) [µM] | TGI (HOP-62 NSCLC) [µM] | TGI (HS 578T breast) [µM] | GI50 (KM12 colon) [µM] | GI50 (MCF7 breast) [µM] | GI50 (NCI-H226 lung) [µM] | GI50 (BT-549 breast) [µM] | GI50 (HS 578T breast) [µM] | GI50 (K-562 leukemia) [µM] | GI50 (OVCAR-5 ovarian) [µM] | GI50 (SR leukemia) [µM] |
| --- | --- | --- | --- | --- | --- | --- | --- | --- | --- | --- | --- | --- | --- | --- | --- | --- | --- |
| O=c1[nH]c(=O)n(COCc2ccccc2)c2ccc(Br)cc12 | > 100 | > 100 | > 100 | > 100 | > 100 | > 100 |  |  |  |  |  |  |  |  |  |  |  |
| O=C1C=C2CO[C@H]3OC[C@H](O)[C@@H]1[C@@H]23 | > 100 | > 100 | > 100 |  | > 100 | 63.1 | > 100 | > 100 | > 100 |  |  |  |  |  |  |  |  |
| CC(=NCCN(CCN=C(C)c1c(O)cc(C)oc1=O)CCN=C(C)c1c(O)cc(C)oc1=O)c1c(O)cc(C)oc1=O | > 100 | > 100 | > 100 |  | > 100 | > 100 |  | > 100 | > 100 |  |  |  |  |  |  |  |  |
| S=C1C(=Nc2ccccc2)N(c2ccccc2)/C(=N\c2ccccn2)N1c1ccccc1 | > 100 | 25.5 |  | 36.8 | 29.9 | 60.8 |  | 30.1 | 39.5 |  |  |  |  |  |  |  |  |
| C=C(CC(=O)Nc1ccc(C(=O)OC)o1)C(=O)OC |  | 42.5 | 54 | 66.8 | 35.5 |  |  | > 100 | > 100 |  |  |  |  |  |  |  |  |
| CC(=Nc1c2ccccc2nc2ccccc12)N(C)C | 25.4 |  | 78.8 | 45.7 | > 100 | 23.3 | 90.7 | 66.2 | 69.8 |  |  |  |  |  |  |  |  |
| CCN(CC)C(=S)N/N=C/c1ccccn1 | > 100 | > 100 | 26 | 0.989 | > 100 | > 54.8 | > 100 |  | > 100 |  |  |  |  |  |  |  |  |
| OCC(O)C1OC2CC1Nc1ccccc1N2 (stereo not given) | > 100 | > 100 |  | > 100 |  |  |  | > 100 | > 100 |  |  |  |  |  |  |  |  |
| CC(=O)NC1C(OCc2ccccc2)OC(CO)C(O)C1OCC(=O)NC(C)C(=O)NC(CCC(=O)NCCCCCNc1c2ccccc2nc2cccc([N+](=O)[O-])c12)C(N)=O (stereo not given) | < 0.0001 | < 0.0001 | < 0.0001 | 0.00254 |  |  | < 0.0001 |  |  |  |  |  |  |  |  |  |  |
| Cc1nccn1S(=O)(=O)c1ccc(Br)cc1Br | > 100 | 88.7 | > 100 |  | > 100 | 78.3 | > 100 |  | > 100 |  |  |  |  |  |  |  |  |
| NC(c1ccccc1)(C(F)(F)F)P1(=O)OC(=O)c2ccccc2O1 (stereo not given) | > 100 | > 100 | > 100 | > 100 | > 100 | > 100 | > 100 | > 100 |  |  |  |  |  |  |  |  |  |
| COC(=O)C(Cc1c[nH]c2ccccc12)NC(=O)C(Cc1c[nH]c2ccccc12)NC(=O)C(Cc1c[nH]c2ccccc12)NC(=O)C(Cc1c[nH]c2ccccc12)NC(=O)OC(C)(C)C (stereo not given) (Boc-WWWW-OMe; configuration not given here) | > 100 |  | 0.0884 | > 100 | > 100 | 56.6 | 70.2 | 67 |  |  |  |  |  |  |  |  |  |
| Cc1cccc2nc3cccc(C(=O)NCCC[N+](C)(CCCNC(=O)c4cccc5nc6cccc(C)c6nc45)Cc4c([N+](=O)[O-])ncn4C)c3nc12 | > 1100 | > 1100 | 96.9 | 267 |  | > 1100 | > 1100 |  | > 1100 | 17.5 | 2.34 | 0.11 |  |  |  |  |  |
| C1#Cc2ccccc2OCCOc2ccccc2C#Cc2ccccc2OCCOc2ccccc21 | 24.3 | > 100 | > 100 | 38.3 | 65.2 |  | 81.9 | 23.2 | 64.3 |  |  |  |  |  |  |  |  |
| O=C(NC1(C(=O)NNc2nnc(-c3ccccc3)c(-c3ccccc3)n2)C(c2ccccc2)C(c2ccccc2)=NN1c1ccccc1)c1ccccc1 (stereo not given) |  | > 100 |  | > 100 | > 100 | > 100 | > 100 | > 100 | > 100 |  |  |  |  |  |  |  |  |
| COC(=O)C1(NC(=O)C(CC(=O)OCc2ccccc2)NC(=O)OC(C)(C)C)CC1 (stereo not given) (Boc-[ξD](OBn)-[Ac3c]-OMe) | > 100 | > 100 | > 100 | > 100 | > 100 |  | > 100 | > 100 | > 100 |  |  |  |  |  |  |  |  |
| O=c1[nH]c(=O)n(COCc2ccccc2)c2ccc([N+](=O)[O-])cc12 | > 100 | > 100 | > 100 | > 100 | > 100 | > 100 |  |  |  |  |  |  |  |  |  |  |  |
| CC(NC1=NCCO1)c1cccc([N+](=O)[O-])c1 (stereo not given) | > 100 | > 100 | > 100 | > 100 | > 100 | > 100 |  | > 100 | > 100 |  |  |  |  |  |  |  |  |
| Cc1cc(=O)n2nc(CSc3nnc(N)s3)sc2n1 | > 100 | > 100 | > 100 | > 100 | > 100 |  | > 100 | > 100 | > 100 |  |  |  |  |  |  |  |  |
| C=CCN(c1cc(OCc2ccccc2)c(NC(C)=O)cc1[N+](=O)[O-])S(C)(=O)=O | > 100 | > 100 | > 100 | 25.2 | > 100 |  | 93.3 | 53 | 56.7 |  |  |  |  |  |  |  |  |
| O=C(CN1CCCCC1)c1ccc2c(c1)Sc1ccccc1O2 | > 100 | 30.1 | 30.9 | 29 | 30 | 75.1 |  | 32.5 | 21.6 |  |  |  |  |  |  |  |  |
| Cc1ccc(S(=O)(=O)NC(=O)NCCC(=O)O)cc1 | > 100 | > 100 | > 100 |  | > 100 | > 100 | > 100 | > 100 | > 100 |  |  |  |  |  |  |  |  |
| Nc1ccccc1NC(=O)CCCCCCC(=O)Nc1ccc2c(c1)/C(=C/c1ccc[nH]1)C(=O)N2 | > 100 | > 100 | > 100 |  | > 100 | > 100 | > 100 |  | > 100 | 1.45 | 3.6 |  | 0.391 | 47.6 | 8.75 | > 100 | 4.64 |
| CC1(C)[C@@H](Cn2cnc3c(=O)[nH]c(N)nc32)CC[C@@]1(C)CO | > 100 | > 100 | > 100 | > 100 | > 100 |  |  | > 100 | > 100 |  |  |  |  |  |  |  |  |
| CC(C)(C)OC(=O)NC(Cc1ccc(O)cn1)C(N)=O (stereo not given) |  | > 100 | > 100 | > 100 | > 100 | > 100 | > 100 | > 100 | > 100 |  |  |  |  |  |  |  |  |
